Assay results reported in ChEMBL document CHEMBL1201862, “PubChem BioAssay data set” (2004).
Calls of active or inactive are those of the source.

What was measured:
[1] = biological target: Cytochrome P450 2C19 (Homo sapiens, UniProt P33261); assay: Cytochrome panel assay with activity outcomes. Panel member name: p450-cyp2c19 Compounds with AC50 equal or less than 10 uM are considered active; assay type: functional; settings: read-out: AC50
[2] = biological target: T1, Corticotropin-releasing factor receptor 2/Corticotropin-releasing factor-binding protein (Homo sapiens, UniProt P24387+Q13324); assay: activators of CRF receptor 2 with binding protein – uHTS hits, confirmation (AID 602473); assay type: functional; settings: read-out: EC50_Mean
T1 sequence (Q13324 whole entry): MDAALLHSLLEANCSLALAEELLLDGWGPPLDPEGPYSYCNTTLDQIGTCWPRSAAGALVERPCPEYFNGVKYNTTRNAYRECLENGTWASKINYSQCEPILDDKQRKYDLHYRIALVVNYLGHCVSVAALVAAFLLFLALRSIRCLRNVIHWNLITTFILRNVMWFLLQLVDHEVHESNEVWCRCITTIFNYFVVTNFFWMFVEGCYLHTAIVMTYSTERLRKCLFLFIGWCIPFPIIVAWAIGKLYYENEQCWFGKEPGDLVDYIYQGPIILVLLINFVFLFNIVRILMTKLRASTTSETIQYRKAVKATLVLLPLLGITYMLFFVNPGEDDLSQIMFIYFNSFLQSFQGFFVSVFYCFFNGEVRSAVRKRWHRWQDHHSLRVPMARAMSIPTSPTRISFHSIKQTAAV
T1 sequence (P24387 whole entry): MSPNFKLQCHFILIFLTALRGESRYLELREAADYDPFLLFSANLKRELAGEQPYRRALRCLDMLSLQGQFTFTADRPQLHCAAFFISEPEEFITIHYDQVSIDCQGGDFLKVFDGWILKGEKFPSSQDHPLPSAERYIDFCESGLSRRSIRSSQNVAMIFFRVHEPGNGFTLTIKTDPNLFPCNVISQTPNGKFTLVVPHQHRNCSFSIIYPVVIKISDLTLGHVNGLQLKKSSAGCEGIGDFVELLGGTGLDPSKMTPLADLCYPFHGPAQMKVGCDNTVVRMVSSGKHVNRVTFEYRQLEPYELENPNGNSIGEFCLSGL

[3] = biological target: Cytochrome P450 2C9 (Homo sapiens, UniProt P11712)
Cytochrome P450 2C9, sequence (P11712 whole entry): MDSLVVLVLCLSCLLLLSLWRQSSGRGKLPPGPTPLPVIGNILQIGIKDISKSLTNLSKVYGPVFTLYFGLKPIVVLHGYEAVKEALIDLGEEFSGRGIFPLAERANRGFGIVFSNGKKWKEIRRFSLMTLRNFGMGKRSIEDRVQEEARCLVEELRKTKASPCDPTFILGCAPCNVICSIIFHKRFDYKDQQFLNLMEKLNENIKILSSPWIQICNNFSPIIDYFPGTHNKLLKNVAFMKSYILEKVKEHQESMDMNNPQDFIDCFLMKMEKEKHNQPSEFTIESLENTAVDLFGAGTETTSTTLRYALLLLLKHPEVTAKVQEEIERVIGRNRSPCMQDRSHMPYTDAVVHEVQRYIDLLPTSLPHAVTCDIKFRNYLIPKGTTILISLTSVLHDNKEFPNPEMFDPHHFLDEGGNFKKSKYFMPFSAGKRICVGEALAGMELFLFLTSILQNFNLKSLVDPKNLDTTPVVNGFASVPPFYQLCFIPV

[4] = biological target: Cytochrome P450 3A4 (Homo sapiens, UniProt P08684);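 also: CYP3A4 tested as one member of a cytochrome P450 panel screen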
Cytochrome P450 3A4, sequence (P08684 whole entry): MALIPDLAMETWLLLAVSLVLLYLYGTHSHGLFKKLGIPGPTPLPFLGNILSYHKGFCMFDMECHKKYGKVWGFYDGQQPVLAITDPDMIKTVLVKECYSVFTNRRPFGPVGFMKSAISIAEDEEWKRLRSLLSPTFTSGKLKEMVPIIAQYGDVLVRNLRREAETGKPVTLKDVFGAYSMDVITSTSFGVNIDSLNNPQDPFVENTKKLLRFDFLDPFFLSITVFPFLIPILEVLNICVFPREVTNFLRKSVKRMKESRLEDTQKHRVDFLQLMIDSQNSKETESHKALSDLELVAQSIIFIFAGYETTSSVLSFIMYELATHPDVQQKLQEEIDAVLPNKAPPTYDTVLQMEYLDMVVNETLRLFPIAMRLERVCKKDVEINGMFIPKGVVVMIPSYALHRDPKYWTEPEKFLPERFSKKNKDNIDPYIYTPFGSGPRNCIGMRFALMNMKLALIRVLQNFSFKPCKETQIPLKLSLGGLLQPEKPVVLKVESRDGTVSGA

[5] = biological target: T1, Corticotropin-releasing factor receptor 2/Corticotropin-releasing factor-binding protein; assay: Dose Response confirmation of uHTS hits for small molecule antagonists of the CRF-binding protein and CRF-R2 receptor complex.; assay type: functional; settings: read-out: IC50_Mean
[6] = biological target: Cytochrome P450 2D6 (Homo sapiens, UniProt P10635);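 also: CYP2D6 member of a cytochrome P450 panel assay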
Cytochrome P450 2D6, sequence (P10635 whole entry): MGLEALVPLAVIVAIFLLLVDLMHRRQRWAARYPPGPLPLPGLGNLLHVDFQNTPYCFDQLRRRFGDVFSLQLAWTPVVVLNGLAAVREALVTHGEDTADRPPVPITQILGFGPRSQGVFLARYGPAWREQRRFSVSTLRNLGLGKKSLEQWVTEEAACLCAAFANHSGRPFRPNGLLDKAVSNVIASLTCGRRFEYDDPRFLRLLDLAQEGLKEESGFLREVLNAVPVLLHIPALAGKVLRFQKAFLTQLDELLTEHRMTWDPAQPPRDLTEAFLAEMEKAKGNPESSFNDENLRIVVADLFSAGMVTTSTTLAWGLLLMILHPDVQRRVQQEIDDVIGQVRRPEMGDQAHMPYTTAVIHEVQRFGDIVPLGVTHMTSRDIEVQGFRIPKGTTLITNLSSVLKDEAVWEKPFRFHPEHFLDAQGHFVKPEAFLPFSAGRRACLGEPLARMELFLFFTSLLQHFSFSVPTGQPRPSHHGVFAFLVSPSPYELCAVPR

[7] = tested on: Escherichia coli; assay: microbe, parasite or virus in culture
[8] = biological target: T2, Replicative DNA helicase DnaB (Mycobacterium tuberculosis, UniProt P9WMR3); assay: DnaB intein splicing inhibitors, dose response, biochemical, cell-free fluorescence (AID 449749); assay type: functional
T2 sequence (P9WMR3 whole entry): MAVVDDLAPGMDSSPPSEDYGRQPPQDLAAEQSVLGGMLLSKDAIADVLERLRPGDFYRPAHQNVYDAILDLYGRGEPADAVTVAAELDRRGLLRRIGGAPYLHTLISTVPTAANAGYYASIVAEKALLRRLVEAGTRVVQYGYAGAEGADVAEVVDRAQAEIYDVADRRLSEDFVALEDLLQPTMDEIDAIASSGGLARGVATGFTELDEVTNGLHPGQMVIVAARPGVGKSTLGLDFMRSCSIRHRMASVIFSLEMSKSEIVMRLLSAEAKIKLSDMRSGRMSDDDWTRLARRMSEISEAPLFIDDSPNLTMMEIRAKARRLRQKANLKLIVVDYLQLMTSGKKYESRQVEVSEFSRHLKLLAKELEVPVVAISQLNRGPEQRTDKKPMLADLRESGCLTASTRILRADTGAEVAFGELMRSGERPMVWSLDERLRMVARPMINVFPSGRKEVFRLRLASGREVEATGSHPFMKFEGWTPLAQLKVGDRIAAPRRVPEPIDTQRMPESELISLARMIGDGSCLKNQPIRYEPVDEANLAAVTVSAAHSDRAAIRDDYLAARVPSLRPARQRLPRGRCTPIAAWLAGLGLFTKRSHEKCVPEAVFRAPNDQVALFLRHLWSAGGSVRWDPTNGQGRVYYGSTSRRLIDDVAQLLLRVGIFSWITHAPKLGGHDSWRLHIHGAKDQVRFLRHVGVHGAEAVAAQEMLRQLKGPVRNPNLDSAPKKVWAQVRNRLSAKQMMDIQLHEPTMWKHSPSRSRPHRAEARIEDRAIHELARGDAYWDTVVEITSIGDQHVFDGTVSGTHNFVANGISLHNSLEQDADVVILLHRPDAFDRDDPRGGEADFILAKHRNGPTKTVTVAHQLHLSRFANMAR

[9] = biological target: Glucose-6-phosphate 1-dehydrogenase (Homo sapiens, UniProt P11413); assay: human G6PD enzyme inhibitors, dose response, selectivity assay for P. falciparum G6PD inhibitor project, biochemical, fluorescence (AID 504792); assay type: functional
Glucose-6-phosphate 1-dehydrogenase, sequence (P11413 whole entry): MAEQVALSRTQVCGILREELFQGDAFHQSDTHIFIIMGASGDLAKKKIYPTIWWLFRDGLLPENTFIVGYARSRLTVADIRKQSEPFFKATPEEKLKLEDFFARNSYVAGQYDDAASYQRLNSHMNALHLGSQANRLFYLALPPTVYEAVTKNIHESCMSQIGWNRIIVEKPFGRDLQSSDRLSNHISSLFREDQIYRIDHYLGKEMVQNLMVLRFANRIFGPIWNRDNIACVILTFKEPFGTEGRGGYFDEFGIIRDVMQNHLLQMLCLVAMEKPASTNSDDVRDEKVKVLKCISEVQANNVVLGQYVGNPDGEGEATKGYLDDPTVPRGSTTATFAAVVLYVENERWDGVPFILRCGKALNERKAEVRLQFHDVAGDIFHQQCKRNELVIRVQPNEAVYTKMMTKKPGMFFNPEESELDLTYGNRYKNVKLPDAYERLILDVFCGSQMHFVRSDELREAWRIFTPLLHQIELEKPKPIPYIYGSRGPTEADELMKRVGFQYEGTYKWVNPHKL

[10] = biological target: T3, Protein RecA (Mycobacterium tuberculosis, UniProt P9WHJ3); assay: Fluorescence Cell-Free Homogeneous Dose Retest to Identify Inhibitors of RecA-Intein Splicing Activity. [Related pubchem assays (depositor defined):AID2097, AID2223, AID489010, AID492950]; assay type: functional
T3 sequence (P9WHJ3 whole entry): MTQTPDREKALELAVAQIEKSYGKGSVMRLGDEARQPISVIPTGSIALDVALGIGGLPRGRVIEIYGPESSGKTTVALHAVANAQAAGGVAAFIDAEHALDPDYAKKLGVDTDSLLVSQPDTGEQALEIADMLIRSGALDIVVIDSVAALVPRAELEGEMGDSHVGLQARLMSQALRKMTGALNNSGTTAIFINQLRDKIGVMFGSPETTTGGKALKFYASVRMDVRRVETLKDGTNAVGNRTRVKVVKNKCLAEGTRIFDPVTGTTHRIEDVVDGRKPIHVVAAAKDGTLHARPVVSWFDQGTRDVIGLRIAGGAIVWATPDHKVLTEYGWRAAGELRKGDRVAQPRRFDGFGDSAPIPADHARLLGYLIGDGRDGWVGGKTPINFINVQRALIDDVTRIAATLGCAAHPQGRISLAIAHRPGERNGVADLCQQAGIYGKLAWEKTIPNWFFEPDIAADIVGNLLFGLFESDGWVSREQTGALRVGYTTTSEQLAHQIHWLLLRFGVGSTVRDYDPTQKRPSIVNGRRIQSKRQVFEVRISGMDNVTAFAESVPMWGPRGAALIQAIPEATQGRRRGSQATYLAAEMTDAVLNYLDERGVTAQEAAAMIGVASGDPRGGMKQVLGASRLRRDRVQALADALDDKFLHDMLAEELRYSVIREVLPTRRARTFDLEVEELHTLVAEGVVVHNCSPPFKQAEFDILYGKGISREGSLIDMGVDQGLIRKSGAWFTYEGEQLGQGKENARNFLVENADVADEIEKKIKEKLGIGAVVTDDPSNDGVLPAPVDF

[11] = growth suppression of PTEN-null colon cells, dose response, cell-based, HCT116 PTEN knockout (AID 1047); assay type: functional;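 also: HCT116 colon tumor cells with PTEN knocked out; cells exposed to compound for 60 hours before readout; potency for loss of cell viability measured by luminescence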
[12] = growth suppression of beta-catenin-knockout colon cells, dose response, cell-based, HCT116, human colon tumor (AID 1045); assay type: functional;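 also: HCT116 colon tumor cells with beta catenin knocked out; cells exposed to compound for 60 hours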

Cytochrome P450 2C19, sequence (P33261 whole entry): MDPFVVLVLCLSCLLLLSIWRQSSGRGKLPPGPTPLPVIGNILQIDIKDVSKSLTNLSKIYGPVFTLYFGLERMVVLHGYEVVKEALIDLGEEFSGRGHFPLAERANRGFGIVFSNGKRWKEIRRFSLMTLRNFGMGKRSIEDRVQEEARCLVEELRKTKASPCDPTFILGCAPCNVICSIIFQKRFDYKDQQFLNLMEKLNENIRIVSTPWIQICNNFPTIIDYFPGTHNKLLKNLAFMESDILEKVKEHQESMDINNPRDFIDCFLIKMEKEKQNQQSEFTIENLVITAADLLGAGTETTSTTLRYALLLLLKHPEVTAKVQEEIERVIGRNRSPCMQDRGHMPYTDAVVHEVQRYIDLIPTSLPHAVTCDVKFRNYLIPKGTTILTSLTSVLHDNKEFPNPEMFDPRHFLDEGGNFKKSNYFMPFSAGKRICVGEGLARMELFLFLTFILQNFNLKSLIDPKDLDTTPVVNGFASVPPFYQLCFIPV

In the case of `COc1ccc(NC(=O)C(=O)NNC(=O)c2cccs2)c(OC)c1`, the AC50 [1] is reported as 39.8 µM (inconclusive), the EC50 [2] is reported as > 53 µM (inactive) and the AC50 [3] is reported as “inconclusive”. The AC50 [4] was 17.8 µM (inconclusive) and the IC50 [5] was > 47.1 µM (inactive).

With `COc1ccc(NC(=O)CCSc2cc(C)c3ccccc3n2)cc1` the AC50 [3] was “inconclusive” and the AC50 [6] was 31.6 µM (inconclusive).

For `Oc1nc(N2CCCCC2)nc2c1CCCC2`, the AC50 [7] was 24.9 µM (active).

In the case of `CCNc1ccccc1CP(=O)(c1ccccc1)c1ccccc1O` (stereo not given), the AC50 [8] is reported as 10.4 µM (active), the IC50 [9] is reported as 42.6 µM (inactive) and the EC50 [10] is reported as 1.25 µM (active).

For `O=C(c1cccnc1)C1CCCN(Cc2nc(Cc3ccccc3)no2)C1` (stereo not given), the AC50 [7] was 42 µM (active).

For `O=C(Nc1ccc(Cl)c(C(F)(F)F)c1)NC1CC2CCCC(C1)N2C1CC1` (stereo not given), the AC50 [7] was 25.7 µM (active).

For `CNc1nc(-c2cccnc2)nc2ccccc12`, the AC50 [1] was 39.8 µM (inconclusive), the AC50 [3] was “inconclusive” and the AC50 [6] was 39.8 µM (inconclusive).

In the case of `Cc1ccc(-c2nc3ccccc3s2)cc1NC(=S)NC(=O)c1cccc2ccccc12`, the EC50 [11] is reported as 14.1 µM (active), the AC50 [7] is reported as 36.4 µM (active) and the EC50 [12] is reported as 12.1 µM (active).

For `CC(NC(=O)CSc1nc2sc3c(c2c(=O)n1-c1ccccc1)CCCC3)c1ccccc1` (stereo not given), the AC50 [7] was 107 µM (active).
